The values that follow come from EP1234508A1, “Antiprotozoal methods, compositions and feedstuffs” (UNIVERSITEIT GENT, priority 2001, dated 2002).

SMILES strings stand for the structures.

This test is described as follows: Onset of egg laying and egg weight in hens treated via drinking water, Example 3. Format: in vivo. The method, then:
The end of the development of the reproductive organ of laying hens starts on the age of 15 weeks and continues during 7 weeks. 10 laying hens were treated with L-arginine via drinking water from the age of 15 weeks till the age of 21 weeks and 10 laying hens were used as a control group. L-arginine was dosed at 15 mg per kg weight per day. L-arginine free base or a L-arginine salt such as hydrochloride may be given daily in a dose of about 5 - 200 mg up to 5 to about 1000 mg per kg bodyweight per day. Light schemes were taken into account: 8 hours light at the age of 15 and 16 weeks old, 9 hours at 17 weeks, 10 hours at 18 weeks, 11 hours at 19 weeks, 12 hours at 20 weeks and 13 hours at 21 weeks old. The treatment with L-arginine was started on the age of 15 weeks. After 40 days of treatment, 3 of 10 chickens treated with L-arginine started laying while one chicken of the control group started laying four days later (Fig. 5). It is unexpected that the onset of egg-laying is earlier than in the control group which is a commercially important aspect of the present invention. The average weight of the eggs (number of eggs ≥ 3) was above 50 g after 46 days in the treated group while in the control group after 54 days the average weight of at least 3 eggs was above 50 g (Fig 6). Again this improvement is unexpected and is of commercial value.

Turning to `N=C(N)NCCCC(N)C(=O)O` [L-arginine, 2-amino-5-guanidinovaleric acid], the chickens started laying (after 40 days of treatment, 15 mg per kg weight per day via drinking water from the age of 15 weeks, Fig. 5) is recorded as 3 of 10. In addition, the “average weight of the eggs (number of eggs ≥ 3)” value (after 46 days in the treated group, 15 mg per kg weight per day via drinking water, Fig. 6) was “above 50 g”.
